System: Plasmodium berghei
Assay: Luciferase/luciferin-expressing antifolate-resistant parasites were used to infect a culture of HepG2 cells that were pre-incubated with compounds. Infected hepatocytes emit light due to the luciferase reaction. Assay results are presented as the percent inhibition of light emission compared to control. […]
Type: functional
Details: sporozoite; for IC90: read-out: LUCIFERASE INFECTION ASSAY - IC90
[1] = read-out: LUCIFERASE INFECTION ASSAY - IC50

SMILES | IC90 | IC50 [1] | also measured
CCCOc1c(Cl)cc(C(=O)Nc2nonc2-c2cccs2)cc1Cl | 2.87 µM | – | IC50 (HEPG2TOX_HILL_SLOPE 2.94, HEPG2TOX_R_SQUARED 0.74, PBLUC_HILL_SLOPE 28.4, PBLUC_R_SQUARED 0.116, read-out: LUCIFERASE INFECTION ASSAY - IC50): 2.66 µM
O=C(CNc1cccc(S(=O)(=O)N2CCCCC2)c1)NC(=O)NC1CCCCC1 | > 10 µM | – | IC50 (PBLUC_HILL_SLOPE 11, PBLUC_R_SQUARED 0.0354, read-out: LUCIFERASE INFECTION ASSAY - IC50): 9.65 µM
CC(=N)C(C#N)c1csc(Nc2cc(C)cc(C)c2)n1 (stereo unspecified) | > 10 µM | – | IC50 (FFLUC_HILL_SLOPE 2.53, FFLUC_R_SQUARED 0.471, read-out: LUCIFERASE INFECTION ASSAY - IC50): > 10 µM
CC(C)n1ncc2cc(C(=O)Nc3nc4ccccc4s3)cnc21 | 1.97 µM | 0.00908 µM | –
CCn1c(NC(=O)c2csc(Br)c2)nc2ccccc21 | > 10 µM | – | IC50 (PBLUC_HILL_SLOPE 0.956, PBLUC_R_SQUARED 0.162, read-out: LUCIFERASE INFECTION ASSAY - IC50): 5.44 µM
N=C1C(=S)N(c2ccc(Cl)c(Cl)c2)C(=O)N1c1ccc(Cl)c(Cl)c1 | > 7.87 µM | > 7.87 µM | –
Cc1ccc(-c2cs/c(=N\c3cccnc3)n2CCCn2ccnc2)cc1C | > 10 µM | – | IC50 (HEPG2TOX_HILL_SLOPE 0.267, HEPG2TOX_R_SQUARED 0.885, PBLUC_HILL_SLOPE 2.25, PBLUC_R_SQUARED 0.462, read-out: LUCIFERASE INFECTION ASSAY - IC50): 5.5 µM
O=C(CN1C(=O)C(=O)N(C2CCCC2)C1=O)Nc1cc(Cl)ccc1[N+](=O)[O-] | > 10 µM | > 10 µM | –
COc1cc(OC)c(N2CC(C(=O)NC(C)c3ccc(F)c(F)c3)CC2=O)cc1Cl (stereo unspecified) | > 10 µM | > 10 µM | –
NC(=O)c1cccc(-c2cn3c(-c4cccc(O)c4)cnc3cn2)c1 | > 9.99 µM | – | IC50 (PBLUC_HILL_SLOPE 9.23, PBLUC_R_SQUARED 0.539, read-out: LUCIFERASE INFECTION ASSAY - IC50): 8.89 µM
CC(=O)N1CCc2cc(S(=O)(=O)Nc3ccc(Cl)cc3)ccc21 | > 9.41 µM | – | IC50 (PBLUC_HILL_SLOPE 0.924, PBLUC_R_SQUARED 0.105, read-out: LUCIFERASE INFECTION ASSAY - IC50): > 9.41 µM
O=C(NCc1cc(C(F)(F)F)cc(C(F)(F)F)c1)c1cc(Cl)cc(Cl)c1 | > 7.93 µM | > 7.93 µM | –
COCCn1c(SC(C)C(=O)c2ccc(Br)cc2)nnc1-c1cccc(C)c1 (stereo unspecified) | > 10 µM | > 10 µM | –
CN(C1CCCCCC1)S(=O)(=O)c1ccc(-n2ncc(Cl)c(Cl)c2=O)cc1 | 5.25 µM | 3.55 µM | –
CN(C)c1cccc(-c2cnc3cnc(-c4ccncc4)cn23)c1 | > 10.5 µM | – | IC50 (PBLUC_HILL_SLOPE 2.07, PBLUC_R_SQUARED 0.374, read-out: LUCIFERASE INFECTION ASSAY - IC50): 6.53 µM
Clc1ccc(-c2cnc3cnc(-c4cccnc4)cn23)cc1 | 1.8 µM | – | IC50 (HEPG2TOX_HILL_SLOPE 2.16, HEPG2TOX_R_SQUARED 0.901, PBLUC_HILL_SLOPE 2.19, PBLUC_R_SQUARED 0.923, read-out: LUCIFERASE INFECTION ASSAY - IC50): 0.659 µM
CC(C)c1noc(COC(=O)c2ccc(-c3ccc(O)cc3)cc2)n1 | > 10 µM | > 10 µM | –

SMILES | IC90 | IC50 [1] | also measured
Cn1c(NCc2ccccc2)nc2cnc(Nc3ccc(F)cc3)cc21 | > 10 µM | > 10 µM | –
Brc1ccc(/C=N/c2ccccc2N2CCOCC2)cc1 | > 10 µM | > 10 µM | –
CC(C)N(C(=O)COn1nnc2ccc(S(=O)(=O)N(C)C)cc21)C(C)C | > 10 µM | > 10 µM | –
CC(C)(C)C(=O)c1sc2c(c1N)c(=O)[nH]c(=O)n2C1CCCCC1 | 3.47 µM | – | IC50 (PBLUC_HILL_SLOPE 15.3, PBLUC_R_SQUARED 0.0878, read-out: LUCIFERASE INFECTION ASSAY - IC50): 3.01 µM
OCc1ccc(-c2cnc3cnc(-c4cccc(Cl)c4)cn23)cc1 | > 9.83 µM | – | IC50 (PBLUC_HILL_SLOPE 16, PBLUC_R_SQUARED 0.272, read-out: LUCIFERASE INFECTION ASSAY - IC50): 9.56 µM
c1ccc(OCCCn2c(CN3CCCCC3)nc3ccccc32)cc1 | > 9.44 µM | – | IC50 (PBLUC_HILL_SLOPE 1.54, PBLUC_R_SQUARED 0.0855, read-out: LUCIFERASE INFECTION ASSAY - IC50): > 9.44 µM
O=C(NCc1ccc(N2CCCCC2)nc1)c1cccc2c[nH]nc12 | > 10 µM | > 10 µM | –
O=C(Nc1nc(-c2c[nH]c3ccccc23)cs1)c1coc(Br)c1 | > 10 µM | > 10 µM | –
FC(F)(F)c1cnc(Sc2nc(CN3CCOCC3)nc3scc(-c4ccccc4)c23)c(Cl)c1 | > 10 µM | > 10 µM | –
CC(C)(C)c1ccc(CSCCNC2=CC(=O)CC(c3ccc4c(c3)OCO4)C2)cc1 (stereo unspecified) | > 7.54 µM | – | IC50 (HEPG2TOX_HILL_SLOPE 3.72, HEPG2TOX_R_SQUARED 0.93, PBLUC_HILL_SLOPE 2.67, PBLUC_R_SQUARED 0.216, read-out: LUCIFERASE INFECTION ASSAY - IC50): 3.87 µM
CCCCn1nc(C(=O)Nc2cc(S(=O)(=O)N(CC)CC)ccc2N2CCOCC2)c2ccccc2c1=O | > 10 µM | > 10 µM | –
CC(C)n1ncc2c(C(=O)Nc3ccn(C)n3)cc(-c3cccs3)nc21 | > 10 µM | > 10 µM | –
CC1(c2ccco2)NC(=O)N(NC(=O)c2ccc3ccccc3n2)C1=O (stereo unspecified) | > 10 µM | > 10 µM | –
CN(CC(=O)Nc1ccc(-c2nnc3n2CCCCC3)cc1)C1CCS(=O)(=O)C1 (stereo unspecified) | > 10 µM | > 10 µM | –
COc1ccc2c(-c3ccccc3)cc(SCc3nnc(C)o3)nc2c1 | > 10 µM | – | IC50 (PBLUC_HILL_SLOPE 2.18, PBLUC_R_SQUARED 0.122, read-out: LUCIFERASE INFECTION ASSAY - IC50): 6.06 µM
O=C(NC(=O)c1ccc(F)c(Cl)c1)Nc1nnc(C(F)(F)F)s1 | > 8.95 µM | – | IC50 (PBLUC_HILL_SLOPE 12, PBLUC_R_SQUARED 0.227, read-out: LUCIFERASE INFECTION ASSAY - IC50): 8.64 µM

From ChEMBL document CHEMBL4483862, “Open-source discovery of chemical leads for next-generation chemoprotective antimalarials” (2018)
